Like-named read-outs stand apart in the source and are kept apart here.
Tests used:
[1] = target: recombinant form of Glutaminase 1 (GAC) (Homo sapiens, UniProt O94925); assay: Recombinant enzyme assay (GAC, GDH-coupled absorbance, no preincubation); assay type: biochemical; conditions: read-out: GAC Delta N2 IC50 no preinc
Experimental: Enzymatic reaction was started with the addition of 50 μL of enzyme solution (50 mM Tris-HCl pH 8.0, 0.2 mM EDTA, 150 mM K2HPO4, 0.1 mg/ml BSA, 1 mM DTT, 10 ppm antifoam, 4 units/ml GDH, 4 mM adenosine diphosphate, and 4 nM GAC) and read in a Molecular Devices M5 plate reader at 20° C. The plate reader was configured to read absorbance (λ=340 nm) in kinetic mode for 15 minutes. Data was recorded as milli-absorbance units per minute and slopes were compared to a control compound and a DMSO-only control on the same plate. Compounds with slopes less than the DMSO control were considered inhibitors and plate variability was assessed using the control compound.

P493-6 (myc "on") cells = assay: Cell proliferation assay (72 hrs, Cell Titer Glo or Viacount FACS); assay type: cell-based; conditions: P493 cells, 72 h
Experimental: P493-6 (myc “on”) cells were maintained in growth media (RPMI-1640, 10% FBS, 2 mM glutamine, 100 units/ml Penicillin and 100 μg/ml streptomycin) at 37° C. with 5% CO2. For compound assay, P493-6 cells were plated in 96-well V-bottom plates on the day of compound addition in 50 μl of growth media at a cell density of 200,000 cells/ml (10,000 cells/well). Compounds were serially diluted in 100% DMSO at 200-times the final concentration. Compounds were diluted 100-fold into growth media and then 50 μl of this mixture was added to cell plates making the final concentration of DMSO 0.5%. Cells were incubated with compound for 72 hrs at 37° C. with 5% CO2 and analyzed for antiproliferative effects either by Cell Titer Glo (Promega) or FACS analysis using the Viacount (Millipore) kit on the Guava instrument.

[2] = read-out: Cell prolif P493 72 h IC50

IC50 [1] | Compound | IC50 (P493-6 (myc "on") cells; [2]) | also measured
> 20000 nM | CC[C@](O)(C(=O)Nc1nnc(CCCCc2nnc(NC(=O)[C@@](O)(CC)c3ccccc3)s2)s1)c1ccccc1 (single isomer, unassigned) [Compound 144] | – | –
– | COC(C(=O)Nc1nnc(CCSCCc2nnc(NC(=O)C(OC)c3ccccc3)s2)s1)c1ccccc1 (stereo not shown) [Compound 67] | 1800 nM | –
> 20000 nM | O=C(Cc1nnc(CCSCCc2nnc(NC(=O)C3CCOCC3)s2)s1)C1CCOCC1 [Compound 108] | – | –
– | O=C(C[C@@H](O)c1ccccc1)Nc1nnc(CCSCCc2nnc(NC(=O)C[C@@H](O)C3CCCCC3)s2)s1 [Compound 126] | – | IC50 (P493-6 (myc "on") cells; P493-6, read-out: Cell prolif P493 72 h IC50): 12000 nM
750 nM | O=C(N[C@@H](CO)C(=O)Nc1nnc(CCSCCc2nnc(NC(=O)[C@H](CO)NC(=O)OCc3ccccc3)s2)s1)OCc1ccccc1 [Compound 138] | – | –
> 20000 nM | CC(C)(C)c1ccc(CC(=O)Nc2nnc(CCCCc3nnc(NC(=O)Cc4ccc(C(C)(C)C)cc4)s3)s2)cc1 [Compound 191] | – | –
> 20000 nM | CC(C)(C)OC(=O)Nc1ccc(CC(=O)Nc2nnc(CCCCc3nnc(NC(=O)Cc4ccc(NC(=O)OC(C)(C)C)cc4)s3)s2)cc1 [Compound 192] | – | –
3400 nM | O=C(Cc1cc2ccccc2o1)Nc1nnc(CCSCCc2nnc(NC(=O)Cc3cc4ccccc4o3)s2)s1 [Compound 193] | – | –
> 20000 nM | O=C(Cc1ccc(Cl)s1)Nc1cnc(CCSCCc2nnc(NC(=O)Cc3ccc(Cl)s3)s2)s1 [Compound 206] | – | –
13000 nM | O=C(Cc1cc2ccccc2s1)Nc1cnc(CCSCCc2nnc(NC(=O)Cc3cc4ccccc4s3)s2)s1 [Compound 207] | – | –
> 20000 nM | CC1(C)O[C@@H](C(=O)Nc2nnc(CCCCc3nnc(NC(=O)[C@@H]4OC(C)(C)O[C@H]4c4ccccc4)s3)s2)[C@H](c2ccccc2)O1 [Compound 223] | – | –
– | O=C(Cc1cccc(OCCO)c1)Nc1nnc(CCSCCc2nnc(NC(=O)Cc3cccc(OCCO)c3)s2)s1 [Compound 236] | 1400 nM | –
– | O=C(Cc1cccs1)Nc1nnc(CCSCc2nnc(NC(=O)Cc3cccs3)s2)s1 [Compound 237] | 250 nM | –
– | O=C(Cc1cccc(OCCN2CCOCC2)c1)Nc1nnc(CCSCCc2nnc(NC(=O)Cc3cccc(OCCN4CCOCC4)c3)s2)s1 [Compound 240] | 1300 nM | –
– | O=C(CN1C(=O)OC[C@H]1c1ccccc1)Nc1nnc(CCSCCc2nnc(NC(=O)CN3C(=O)OC[C@H]3c3ccccc3)s2)s1 [Compound 243] | 33000 nM | –
– | CCOC(=O)Nc1nnc(CCCCc2nnc(NC(=O)Cc3ccccc3)s2)s1 [Compound 244] | 1700 nM | –
– | COc1ccccc1CC(=O)Nc1nnc(CCSCCc2nnc(NC(=O)C(CO)c3ccccc3OC)s2)s1 (stereo not shown) [Compound 246] | 1600 nM | –
– | Cc1cccc(CC(=O)Nc2nnc(CCSCCc3nnc(NC(=O)Cc4cccc(C)c4)s3)s2)c1 [Compound 247] | 830 nM | –
– | COc1ccccc1CC(=O)Nc1nnc(CCSCc2nnc(NC(=O)Cc3ccccc3OC)s2)s1 [Compound 249] | 160 nM | –
– | COc1cccc(C(CO)C(=O)Nc2nnc(CCCCc3nnc(NC(=O)C(CO)c4cccc(OC)c4)s3)s2)c1 (stereo not shown) [Compound 257] | 73 nM | –
– | COc1cccc(C(CO)C(=O)Nc2nnc(CCSCc3nnc(NC(=O)C(CO)c4cccc(OC)c4)s3)s2)c1 (stereo not shown) [Compound 258] | 180 nM | –
– | COc1cccc(CC(=O)Nc2nnc(CCSCCc3nnc(NC(=O)Cc4cccc(OC)c4OC)s3)s2)c1OC [Compound 259] | 570 nM | –
– | COc1cccc(CC(=O)Nc2nnc(CCCCc3nnc(NC(=O)Cc4cccc(OC)c4OC)s3)s2)c1OC [Compound 260] | 84 nM | –
– | CC(C(=O)Nc1nnc(CCSCCc2nnc(NC(=O)C(C)c3ccccc3Cl)s2)s1)c1ccccc1Cl (stereo not shown) [Compound 261] | 2600 nM | –

Compound | IC50 [1] | IC50 (P493-6 (myc "on") cells; [2]) | also measured
O=C(Nc1nnc(CCCCc2nnc(NC(=O)C3COc4ccccc43)s2)s1)C1COc2ccccc21 (stereo not shown) [Compound 135] | 300 nM | – | –
COc1cc(CC(=O)Nc2nnc(CCSCCc3nnc(NC(=O)Cc4cc(OC)cc(OC)c4)s3)s2)cc(OC)c1 [Compound 202] | 180 nM | – | –
COc1cccc(CC(=O)Nc2nnc(CCSCc3nnc(NC(=O)Cc4cccc(OC)c4)s3)s2)c1 [Compound 250] | 120 nM | 140 nM | –
